Measurements reported in patent publication US20170342021A1, “RAS-INHIBITING INDENYL ACETAMIDE COMPOUNDS, COMPOSITIONS, AND USES” (ADT Pharmaceuticals, Inc., priority 2014, published 2017).

What was measured:
[1] = test system: SW-480 colon tumor cells expressing mutant Ras, compared to HT-29 expressing wild-type Ras; assay: Ras selectivity by growth inhibition, HT-29 versus SW-480; assay type: cell-based, human; settings: ratio of IC50 in HT-29 to IC50 in SW-480; 5000 cells/well, 96-well plates, Cell Titer Glo
Protocol: (§1) This example illustrates cell growth assays that can be employed in the present invention. Cells can include A-549, HT-29, MDA-MB-231, Colo-205, Caco2, HCT-116, SW-480, and DLD-1 human cancer cells obtained from the American Type Culture Collection (ATCC). Human tumor cells are cultured using standard methods in RPMI-1640 growth medium supplemented with 5% fetal bovine serum (FBS). Normal rat kidney (NRK) and Ki-Ras transformed NRK cells (K-NRK) are obtained from ATCC, and were cultured according to supplier recommendations. CellTiter-Glo ATP cell growth assay reagents are obtained from Promega and used according to the manufacturer's protocol. Inhibitors of EGFR, Raf, and MEK are obtained from Selleck Chemicals. Cells are plated at a density of 5,000 cells per well in 96-well microplates or 1,250 cells per well in 384-well plates, and allowed to attach for at least 4 h. Test compounds are dissolved in dimethyl sulfoxide (DMSO), and this working stock is further diluted in growth medium for addition to cell cultures. Serial dilutions of the test compound are prepared in growth medium containing an equal amount of DMSO not exceeding 0.2% final concentration. Each compound concentration is tested in at least 3 separate samples per cell line. At the end of a 3-day treatment period, growth inhibition is analyzed using a bioluminescent assay of ATP concentration (Promega CellTiter-Glo) according to the manufacturer's protocol. The resulting luminescence is measured using the luminescence cartridge of the Molecular Devices Spectramax Paradigm microplate reader. The relative growth inhibition for each sample is determined by comparison with the values obtained for vehicle treated control samples. Growth inhibition values are plotted with the GraphPad Prism5 software using the 4-parameter logistic fit to obtain IC50 values, which corresponds to the growth inhibitory potency of the compound.
(§2) This example illustrates the use of well-established human colon tumor cell lines with widely divergent Ras activation status to determine selectivity values for exemplary compounds of the present invention. Cell lines thus employed in this example were HCT-116, a highly Ras-driven line expressing mutant Ras, SW-480, another strongly Ras-driven line expressing mutant Ras, and HT-29, a non-Ras-driven line expressing wild-type, non-mutated Ras. Cells were plated at 5000 cells/well in 96-well plates, and viable cell numbers were measured using the Cell Titer Glo ATP luminescence assay (Promega). FIGS. 5A-5F show results of these studies for exemplary compounds 054, 058, 057, 055, and 056, respectively. The calculated HT-29/HCT-116 selectivity values for the first five of the aforementioned compounds were 14, 13, 18, 11 and 5, respectively. The calculated HT-29/SW-480 selectivity values for the aforementioned compounds were 16, 16, 19, 13 and 5, respectively.

[2] = test system: HCT-116 colon tumor cells expressing mutant Ras, compared to HT-29 expressing wild-type Ras; assay: Ras selectivity by growth inhibition, HT-29 versus HCT-116; assay type: cell-based, human; settings: ratio of IC50 in HT-29 to IC50 in HCT-116; 5000 cells/well, 96-well plates, Cell Titer Glo
Protocol: as §1, §2

[3] = test system: cells expressing oncogenic H-Ras; settings: literature value, NIH probe report, cited from earlier work
HT-29 = assay: CellTiter-Glo growth inhibition, HT-29; assay type: cell-based, human; settings: ten-fold serial dilutions, wild type Ras line
Protocol: as §1, with “Cells can include A-549, HT-29, MDA-MB-231, Colo-205, Caco2, HCT-116, SW-480, and DLD-1 human cancer cells obtained from the American Type Culture Collection (ATCC). Human tumor cells are cultured using standard methods in RPMI-1640 growth medium supplemented with 5% fetal bovine serum (FBS).” left out
(§3) Cells were seeded in 384-well plates and allowed to attach. Ten-fold serial dilutions of compounds were tested. Each compound concentration was tested in at least 3 separate samples per cell line.

Caco-2 = assay: CellTiter-Glo growth inhibition, Caco-2; assay type: cell-based, human; settings: ten-fold serial dilutions, wild type Ras line
Protocol: as §1, with “Cells can include A-549, HT-29, MDA-MB-231, Colo-205, Caco2, HCT-116, SW-480, and DLD-1 human cancer cells obtained from the American Type Culture Collection (ATCC). Human tumor cells are cultured using standard methods in RPMI-1640 growth medium supplemented with 5% fetal bovine serum (FBS).” left out
as §3

HCT-116 = assay: CellTiter-Glo growth inhibition, HCT-116; assay type: cell-based, human; settings: ten-fold serial dilutions, ras-mutant line
Protocol: as §1, with “Cells can include A-549, HT-29, MDA-MB-231, Colo-205, Caco2, HCT-116, SW-480, and DLD-1 human cancer cells obtained from the American Type Culture Collection (ATCC). Human tumor cells are cultured using standard methods in RPMI-1640 growth medium supplemented with 5% fetal bovine serum (FBS).” left out
as §3

DLD-1 = assay: CellTiter-Glo growth inhibition, DLD-1; assay type: cell-based, human; settings: ten-fold serial dilutions, ras-mutant line
Protocol: as §1, with “Cells can include A-549, HT-29, MDA-MB-231, Colo-205, Caco2, HCT-116, SW-480, and DLD-1 human cancer cells obtained from the American Type Culture Collection (ATCC). Human tumor cells are cultured using standard methods in RPMI-1640 growth medium supplemented with 5% fetal bovine serum (FBS).” left out
as §3

COLO-205 = assay: CellTiter-Glo growth inhibition, COLO-205; assay type: cell-based, human; settings: ten-fold serial dilutions, wild type Ras line, lowest level of active Ras
Protocol: as §1, with “Cells can include A-549, HT-29, MDA-MB-231, Colo-205, Caco2, HCT-116, SW-480, and DLD-1 human cancer cells obtained from the American Type Culture Collection (ATCC). Human tumor cells are cultured using standard methods in RPMI-1640 growth medium supplemented with 5% fetal bovine serum (FBS).” left out
as §3

SW-480 = assay: CellTiter-Glo growth inhibition, SW-480; assay type: cell-based, human; settings: ten-fold serial dilutions, ras-mutant line
Protocol: as §1, with “Cells can include A-549, HT-29, MDA-MB-231, Colo-205, Caco2, HCT-116, SW-480, and DLD-1 human cancer cells obtained from the American Type Culture Collection (ATCC). Human tumor cells are cultured using standard methods in RPMI-1640 growth medium supplemented with 5% fetal bovine serum (FBS).” left out
as §3

[4] = test system: panel of human colorectal cancer cell lines; assay: Growth inhibition by known Ras pathway inhibitors across the cell line panel; assay type: cell-based; settings: comparison of potency across cell lines with differing Ras activation
Protocol: This example illustrates cell growth assays that can be employed in the present invention. Cells can include A-549, HT-29, MDA-MB-231, Colo-205, Caco2, HCT-116, SW-480, and DLD-1 human cancer cells obtained from the American Type Culture Collection (ATCC). Human tumor cells are cultured using standard methods in RPMI-1640 growth medium supplemented with 5% fetal bovine serum (FBS). Normal rat kidney (NRK) and Ki-Ras transformed NRK cells (K-NRK) are obtained from ATCC, and were cultured according to supplier recommendations. CellTiter-Glo ATP cell growth assay reagents are obtained from Promega and used according to the manufacturer's protocol. […] At the end of a 3-day treatment period, growth inhibition is analyzed using a bioluminescent assay of ATP concentration (Promega CellTiter-Glo) according to the manufacturer's protocol. The resulting luminescence is measured using the luminescence cartridge of the Molecular Devices Spectramax Paradigm microplate reader. The relative growth inhibition for each sample is determined by comparison with the values obtained for vehicle treated control samples. […]
This example illustrates the levels of Ras activation in different colorectal cancer cells. […] The ratio of the intensity of the Ras to GAPDH bands was expressed as relative Ras activation, which is presented above each lane in FIG. 4. […]

[5] = Homo sapiens, HT-29, 384-well plates
[6] = Homo sapiens, Caco-2, 384-well plates
[7] = Homo sapiens, HCT-116, 384-well plates
[8] = Homo sapiens, DLD-1, 384-well plates
[9] = Homo sapiens, COLO 205, 384-well plates
[10] = Homo sapiens, SW480, 384-well plates

With `COc1cc(/C=C2/C(C)=C(CC(=O)Nc3cccc(Br)c3)c3cc(F)ccc32)cc(OC)c1O` [Compound 058, (Z)—N-(3-bromophenyl)-2-(5-fluoro-1-(4-hydroxy-3,5-dimethoxybenzylidene)-2-methyl-1H-inden-3-yl)acetamide] the HT-29/SW-480 selectivity value [1] was 16 and the HT-29/HCT-116 selectivity value [2] was 13.
For `Cc1onc(C(=O)N2CCN(C(c3ccc(Cl)cc3)c3ccc(Cl)cc3)CC2)c1[N+](=O)[O-]` [ML210], the “selectivity versus cells lacking oncogenic Ras” value [3] is listed as 4 fold and the IC50 ([3]; read-out: IC50, growth of cells expressing mutant Ras) is listed as 0.071 µM.
For `COc1cc(/C=C2/C(C)=C(CC(=O)Nc3ccc(Cl)cc3)c3cc(F)ccc32)cc(OC)c1O` [Compound 055, (Z)—N-(4-chlorophenyl)-2-(5-fluoro-1-(4-hydroxy-3,5-dimethoxybenzylidene)-2-methyl-1H-inden-3-yl)acetamide], the HT-29/SW-480 selectivity value [1] was 13 and the HT-29/HCT-116 selectivity value [2] was 11.
`OCCn1cc(-c2ccc3c(c2)CC/C3=N\O)c(-c2ccncc2)n1` [GDC0879] showed an IC50 (HT-29; [5]) of at least 23.6 µM, an IC50 (Caco-2; [6]) of over 20 µM and an IC50 (HCT-116; [7]) of 8.14 µM. The IC50 (DLD-1; [8]) was 7.64 µM, the IC50 (COLO-205; [9]) was 0.0758 µM and the IC50 (SW-480; [10]) was over 20 µM.
In the case of `COc1cc(/C=C2/C(C)=C(CC(=O)Nc3ccc(Cl)c(Cl)c3)c3cc(F)ccc32)cc(OC)c1O` [Compound 056, (Z)—N-(3,4-dichlorophenyl)-2-(5-fluoro-1-(4-hydroxy-3,5-dimethoxybenzylidene)-2-methyl-1H-inden-3-yl)acetamide], the HT-29/SW-480 selectivity value [1] is reported as 5 and the HT-29/HCT-116 selectivity value [2] is reported as 5.
With `COc1cc(/C=C2/C(C)=C(CC(=O)Nc3ccc(Br)cc3)c3cc(F)ccc32)cc(OC)c1O` [Compound 057, (Z)—N-(4-bromophenyl)-2-(5-fluoro-1-(4-hydroxy-3,5-dimethoxybenzylidene)-2-methyl-1H-inden-3-yl)acetamide] the HT-29/SW-480 selectivity value [1] was 19 and the HT-29/HCT-116 selectivity value [2] was 18.
For `Cn1cnc2c(F)c(Nc3ccc(Br)cc3Cl)c(C(=O)NOCCO)cc21` [Selumetinib], the IC50 (HT-29; [5]) was 0.854 µM, the IC50 (Caco-2; [6]) was over 20 µM and the IC50 (HCT-116; [7]) was 4.11 µM. For the same compound, the IC50 (DLD-1; [8]) was at least 20.4 µM, the IC50 (COLO-205; [9]) was 0.0046 µM and the IC50 (SW-480; [10]) was over 20 µM.
In the case of `COc1cc(/C=C2/C(C)=C(CC(=O)Nc3ccc(F)cc3)c3cc(F)ccc32)cc(OC)c1O` [Compound 054, (Z)-2-(5-fluoro-1-(4-hydroxy-3,5-dimethoxybenzylidene)-2-methyl-1H-inden-3-yl)-N-(4-fluorophenyl)acetamide], the HT-29/SW-480 selectivity value [1] is reported as 16 and the HT-29/HCT-116 selectivity value [2] is reported as 14.
`O=C1Nc2ccc(I)cc2/C1=C/c1cc(Br)c(O)c(Br)c1` [GW5074] showed an IC50 (HT-29; 384-well plates) of 19.1 µM, an IC50 (Caco-2; 384-well plates) of over 20 µM and an IC50 (HCT-116; 384-well plates) of 15.8 µM. The IC50 (DLD-1; 384-well plates) was 7.75 µM, the “selectivity with regard to Ras activation” value [4] was “did not show selectivity for cell lines expressing activated Ras” and the IC50 (COLO-205; 384-well plates) was 7.1 µM. It also gave an IC50 (SW-480; 384-well plates) of 8.07 µM.
Compound `CCCS(=O)(=O)Nc1ccc(F)c(C(=O)c2c[nH]c3ncc(-c4ccc(Cl)cc4)cc23)c1F` [Vemurafenib] has an IC50 (HT-29; [5]) of 5.1 µM, an IC50 (Caco-2; [6]) of 5.2 µM and an IC50 (HCT-116; [7]) of 5.99 µM. The IC50 (DLD-1; [8]) was 5.62 µM, the IC50 (COLO-205; [9]) was 0.151 µM and the IC50 (SW-480; [10]) was 6.86 µM.
